Assay results taken from patent publication US4847256A, “4,5-dihydro and 4,5,6,7-tetrahydropyrazolo(1,5-A)-pyrimidines” (American Cyanamid Company, priority 1986, dated 1989).

Tests used:
[1] = test system: brain-specific receptors (benzodiazepine binding); experiment: Inhibition of the binding of 3H-benzodiazepine to brain-specific receptors of rats; parameters: species or system rat (Wistar); settings: 3H-diazepam (1.5 nM) or 3H-flunitrazepam (1.0 nM), rat cortex P2 fraction, pH 7.4, 30 minutes in ice; 12% or more = active; test concentration not given
From the text: Still another test utilized for the determination of anxiolytic activity is the measurement of the ability of a test compound to inhibit the binding of tritiated benzodiazepines to brain-specific receptors of mammals. A modification of the method described by R. F. Squires, et al., Nature, 266, No. 21:732 (April, 1977) and H. Mohler, et al., Science, 198:849 (1977) was employed.
Male albino rats (Wistar strain, weighing 150-200 g each) were used. The test compounds were solubilized in dimethylformamide, acetic acid, ethanol or hydrochloric acid.
Whole cortex of rats was homogenized gently in 20 volumes of ice-cold 0.32 M sucrose, centrifuged twice at 1000 g for 10 minutes and then recentrifuged at 30,000 g for 20 minutes to produce a crude P2 -synaptosomal fraction. The P2 -fraction was either: (1) resuspended in twice the original volume in hypotonic 50 mM Tris.HCl (pH 7.4), or (2) resuspended in one-half the original volume in hypotonic 10 mM Tris.HCl (pH 7.4) and frozen (-20° C.) until time of use. Frozen P2 preparations were thawed and resuspended in four times the original homogenizing volume at time of assay.
The binding assay consisted of 300 μl of the P2 -fraction suspension (0.2-0.4 mg protein), 100 μl of test drug and 100 μl of ^3 H-diazepam (1.5 nM, final concentration) or ^3 H-flunitrazepam (1.0 nM, final concentration) which was added to 1.5 ml of […] Tris.HCl (pH 7.4). Nonspecific binding controls and total binding controls received 100 μl of diazepam (3 μM final concentration) and 100 μl of deionized water, respectively, in place of the test compound. Incubation for 30 minutes proceeded in ice and was terminated by filtration, under vacuum, through glass fiber filters. The filters were washed twice with 5 ml of ice-cold 50 mM Tris.HCl (pH 7.4) and placed in scintillation vials. After drying at 50°-60° C. for 30 minutes, 10 ml of diluent was added and the radioactivity determined in a scintillation counter.
Inhibition of binding was calculated by the difference between total binding and binding in the presence of test compound, divided by the total binding, ×100. Physiological activity can be shown by a test compound that inhibits ^3 H-benzodiazepine binding by 12% or more.

[2] = test system: clonic seizures caused by pentylenetetrazole in rats; experiment: Protection against clonic seizures caused by pentylenetetrazole in rats; assay type: in vivo, rat; settings: 25 mg/kg, oral or intraperitoneal; pentylenetetrazole 23 mg/kg i.v. at 30 or 60 minutes; active if >=50% protected
Experimental: The antianxiety properties of the novel compounds of the present invention have been established in a test which indicates anxiolytic activity by the measure of protection from convulsions resulting from the administration of pentylenetetrazole. Single or graded dose levels of the test compounds were administered orally or intraperitoneally in a 2% starch vehicle containing 0.5% v/v polyethylene glycol and one drop of polysorbate 80, or distilled water and one drop of polysorbate 80 to groups of at least 4 rats. At 30 or 60 minutes, the rats were treated intravenously with pentylenetetrazole at a dose of 23 mg/kg of body weight. This dose is estimated to cause clonic seizures in 99% of unprotected rats. The test compounds are considered active if they protect 50% or more of the rats from clonic seizures. It has been reported [R. T. Hill and D. H. Tedeschi, "Animal Testing and Screening Procedures in Evaluating Psychotropic Drugs" in "An Introduction to Psychopharmacology", pp. 237-288 (Eds. R. R. Rech and K. E. Moore, Raven Press, New York, 1971) that there is a high degree of correlation between antagonism of pentylenetetrazole seizures in rats and antianxiety effects in higher warm-blooded animals.

[3] = test system: spontaneously hypertensive rats of the Okamoto strain; experiment: Reduction of mean arterial blood pressure in spontaneously hypertensive rats; assay type: in vivo, rat (Okamoto strain; settings: 100 mg/kg or less by gavage, two doses 24 h apart; MABP at 28 hours; number of rats in parentheses in cell; untreated average 160±1.5 mm Hg
Experimental: Certain of the novel compounds of the present invention are active hypotensive agents at nontoxic doses when administered to mammals. These compounds were tested for hypotensive activity by the method of P. S. Chan and D. W. Poorvin, Clinical and Experimental Hypertension, 1 (6), 817-830 (1979). Male, 16 week old, spontaneously hypertensive rats of the Okamoto strain having an average mean arterial blood pressure of 160±1.5 mm of mercury are used in the test. One to three rats are used per test compound. A rat is dosed by gavage with a test compound, suspended in 2% pre-boiled starch at a concentration of 50 mg/ml, at a dose of 100 mg/kg of body weight or less, with 0.9% sodium chloride loading at a dose of 25 ml/kg of body weight. A second identical dose of the test compound, without sodium chloride loading is given 24 hours later. At 28 hours after the initial dose the mean arterial blood pressure is measured by the method of Chan and Poorvin vide supra. The procedure is repeated in a second and third rat when necessary.

[4] = test system: Wistar strain male rats (conflict procedure); experiment: Non-conditioned passive avoidance (conflict) procedure in rats; assay type: in vivo, rat (Wistar); settings: 25 mg/kg, oral, 60 minutes before test
Experimental: Another test used to assess antianxiety effects is a non-conditioned passive avoidance procedure described by J. R. Vogel, B. Beer and D. E. Clody, "A Simple and Reliable Conflict Procedure for Testing Antianxiety Agents", Psychopharmacologia, 21:1-7 (1971). A conflict situation is induced in rats by a modification of this method.
Groups of 8 naive, Wistar strain male rats weighing 200-240 g each were deprived of water for 48 hours. The test compounds were administered in single or graded, oral doses, suspended in 2% starch with 5% polyethylene glycol in distilled water and one drop of polysorbate 80. Control animals received the vehicle alone. At 60 minutes each rat was placed in an individual clear plastic chamber. Tap water was available ad libitum from a nipple located in a black box off the main chamber. A 0.7 milliampere AC shocking current was established between the stainless steel grid floor and the tap. After 20 licks of non-shocked drinking, a 2 second shocking current was administered to the rat. This ratio of 20 licks of non-shocked drinking followed by a 2 second shock was continued for a total of 3 minutes. The number of shocks taken by each rat during the 3 minute interval was recorded and compared to a control group. […]

[5] = test system: rats (stress induced immobility); experiment: Stress Induced Immobility Test; assay type: in vivo, rat; settings: 25 mg/kg intraperitoneally, 15 minutes at 44.5° C.; control 200 seconds
Experimental: The compounds of this invention are active as antidepressant agents in warm-blooded animals as evidenced by their results when tested in the Stress Induced Immobility Test. In this test, rats were confined on a warm (44.5° C.), but aversive, surface for 15 minutes. After 5-6 minutes, control rats began to show episodes of behavior where they remained flat and immobile for periods of time. The total duration of this behavior was timed. The average duration of immobility in the control rats was 200 seconds. The test compounds were administered intraperitoneally at 25 mg/kg of body weight. A compound was considered active if the maximum duration time was <100 seconds (less than 50% of the control value) in more than 50% of the rats.

SMILES | % Inhibition of 3H-benzodiazepine binding [1] | MABP/mm Hg (no. of rats) [3] | other results
O=C(c1ccccc1)c1cnn2c1NCC=C2c1cccc(C(F)(F)F)c1 [[4,5-Dihydro-7-[3-(trifluoromethyl)phenyl]pyrazolo[1,5-a]pyrimidin-3-yl]phenylmethanone] | 76% | 122 mm Hg | % of Rats Protected (against clonic seizures) [2]: 75%; Result (no. of shocks per 3 min.) [4]: 19.1 no. of shocks per 3 min.
N#Cc1cnn2c1NCC=C2c1ccc(Cl)c(Cl)c1 [7-(3,4-Dichlorophenyl)-4,5-dihydropyrazolo[1,5-a]pyrimidine-3-carbonitrile] | 12% | – | –
FC(F)(F)c1cccc(C2=CCNc3ccnn32)c1 [4,5-Dihydro-7-[3-(trifluoromethyl)phenyl]pyrazolo[1,5-a]pyrimidine] | 48% | – | –
N#Cc1cnn2c1NCC=C2c1cccc(C(F)(F)F)c1 [4,5-Dihydro-7-[3-(trifluoromethyl)phenyl]pyrazolo[1,5-a]pyrimidine-3-carbonitrile] | 15% | – | –
FC(F)(F)c1cccc(C2=CCNc3c(Cl)cnn32)c1 [3-Chloro-4,5-dihydro-7-[3-(trifluoromethyl)phenyl]pyrazolo[1,5-a]pyrimidine] | 63% | – | –
NC(=O)c1cnn2c1NCCC2 [4,5,6,7-Tetrahydropyrazolo[1,5-a]pyrimidine-3-carboxamide] | – | 137 mm Hg | –
O=C(c1ccccc1)c1cnn2c1NCCC2c1ccncc1 (stereo not drawn) [Phenyl[4,5,6,7-tetrahydro-7-(4-pyridinyl)pyrazolo[1,5-a]pyrimidin-3-yl]methanone] | 22% | 125 mm Hg | –
N#Cc1cnn2c1NCCC2c1cccc(C(F)(F)F)c1 (stereo not drawn) [4,5,6,7-Tetrahydro-7-[3-(trifluoromethyl)phenyl]pyrazolo[1,5-a]pyrimidine-3-carbonitrile] | – | 128 mm Hg | –
N#Cc1cnn2c1NCC=C2c1ccccc1 [4,5-Dihydro-7-phenylpyrazolo[1,5-a]pyrimidine-3-carbonitrile] | 20% | – | –
NC(=O)c1cnn2c1NCC=C2c1cccc(C(F)(F)F)c1 [4,5-Dihydro-7-[3-(trifluoromethyl)phenyl]pyrazolo[1,5-a]pyrimidine-3-carboxamide] | – | 108 mm Hg | –
NC(=O)c1cnn2c1NCC=C2c1cccc(F)c1 [7-(3-Fluorophenyl)-4,5-dihydropyrazolo[1,5-a]pyrimidine-3-carboxamide] | 39% | – | –
CCOC(=O)c1cnn2c1NCC=C2c1ccccc1 [4,5-Dihydro-7-phenylpyrazolo[1,5-a]pyrimidine-3-carboxylic acid, ethyl ester] | 54% | – | –
Cc1nn2c(c1C(N)=O)NCC=C2c1cc(Cl)ccc1Cl [7-(2,5-Dichlorophenyl)-4,5-dihydro-2-methylpyrazolo[1,5-a]pyrimidine-3-carboxamide] | – | 95 mm Hg | –
CN1CC=C(c2cccc(C(F)(F)F)c2)n2ncc(C#N)c21 [4,5-Dihydro-4-methyl-7-[3-(trifluoromethyl)phenyl]pyrazolo[1,5-a]pyrimidine-3-carbonitrile] | 12% | – | Result (no. of shocks per 3 min.) [4]: 19.0 no. of shocks per 3 min.
CC1CC(c2ccc(Cl)cc2)n2ncc(C#N)c2N1 (stereo not drawn) [7-(4-Chlorophenyl)-4,5,6,7-tetrahydro-5-methylpyrazolo[1,5-a]pyrimidine-3-carbonitrile] | – | – | Mean Duration (Seconds) of immobility [5]: 4.7 s
NC(=O)c1cnn2c1NCC=C2c1ccccc1 [4,5-Dihydro-7-phenylpyrazolo[1,5-a]pyrimidine-3-carboxamide] | – | – | % of Rats Protected (against clonic seizures) [2]: 50%
CC(C)(C)C(=O)c1cnn2c1NCCC2 [2,2-Dimethyl-1-(4,5,6,7-tetrahydropyrazolo[1,5-a]pyrimidin-3-yl)-1-propanone] | 28% | 114 mm Hg | –
CC1CC(c2cccc(Cl)c2)n2ncc(C#N)c2N1 (stereo not drawn) [7-(3-Chlorophenyl)-4,5,6,7,-tetrahydro-5-methylpyrazolo[1,5-a]pyrimidine-3-carbonitrile] | – | – | Mean Duration (Seconds) of immobility [5]: 75.4 s
CC1=C(c2cccc(Cl)c2)n2ncc(C#N)c2NC1 [7-(3-Chlorophenyl)-4,5-dihydro-6-methylpyrazolo[1,5-a]pyrimidine-3-carbonitrile] | – | – | Mean Duration (Seconds) of immobility [5]: 66.7 s
CC1=C(c2cccc(C(F)(F)F)c2)n2ncc(C#N)c2NC1 [4,5-Dihydro-6-methyl-7-[3-(trifluoromethyl)phenyl]pyrazolo[1,5-a]pyrimidine-3-carbonitrile] | – | – | Mean Duration (Seconds) of immobility [5]: 55.0 s
CCOC(=O)c1cnn2c1NCC=C2c1cccc(C(F)(F)F)c1 [4,5-Dihydro-7-[3-(trifluoromethyl)phenyl]pyrazolo[1,5-a]pyrimidine-3-carboxylic acid, ethyl ester] | 90% | – | –
